SMILES strings stand for the structures. Converted amounts (≈) assume the structure as drawn. Non-standard residues stand in square brackets, D forms with d. Residues, ends and D or L forms follow the SMILES beside them. Orn = NCCC[C@H](N)C(=O)O

Data set [1] deals with Candida albicans 1402. Description: Broth microdilution MIC and MFC (CLSI). The data set is classed as cell-based. (In general: Dilution methods test growth across graded concentrations, often in twofold steps.)
Data set [2] deals with C. glabrata 1402. Description: Broth microdilution MIC and MFC (CLSI). It counts as cell-based. The note with it: Nakaseomyces glabratus.
For data set [3], the system named is C. krusei 1447. Description: Broth microdilution MIC and MFC (CLSI). To be noted: Pichia kudriavzevii. The data set is classed as cell-based.
Data set [4] has as its system C. tropicalis 156. In words: Broth microdilution MIC and MFC (CLSI). It counts as cell-based. To be noted: Candida tropicalis.
Data set [5] relates to C. parapsilosis 571. Description: Broth microdilution MIC and MFC (CLSI). It counts as cell-based. The note with it: Lodderomyces parapsilosis.
Data set [6] has as its system Cryptococcus neoformans 297. Description: Broth microdilution MIC and MFC (CLSI). The data set is classed as cell-based. The note with it: Cryptococcus neoformans 297 clinical isolate; RPMI 1640 pH 7.0, 35 °C, 24 h; read-out: MIC.
The next data set concerns C. laurentii 325m. Description: Broth microdilution MIC and MFC (CLSI). The data set is classed as cell-based, Cr. laurentii. The note with it: Papiliotrema laurentii; C. laurentii 325m clinical isolate; RPMI 1640 pH 7.0, 35 °C, 24 h; read-out: MIC.
In a further data set the test system is Aspergillus niger 1133m. In words: Sensititre YeastOne antifungal susceptibility test. The note with it: Aspergillus niger, 1133M. It counts as cell-based.
In the next data set the test system is A. fumigatus 390m. In words: Sensititre YeastOne antifungal susceptibility test. The note with it: Aspergillus fumigatus, 390M. It counts as cell-based.
For a further data set, the system named is A. terreus 497. Description: Sensititre YeastOne antifungal susceptibility test. The data set is classed as cell-based. The note with it: Aspergillus terreus, 497.
For data set [7], the system named is Candida albicans 1402. In words: Sensititre YeastOne antifungal susceptibility test. The data set is classed as cell-based. To be noted: Candida albicans, 1402.
Data set [8] concerns C. glabrata 1402. Description: Sensititre YeastOne antifungal susceptibility test. The data set is classed as cell-based. The note with it: Nakaseomyces glabratus, 1402.
The subject of data set [9] is C. krusei 1447. In words: Sensititre YeastOne antifungal susceptibility test. It counts as cell-based. To be noted: Pichia kudriavzevii, 1447.
In data set [10] the test system is C. tropicalis 156. In words: Sensititre YeastOne antifungal susceptibility test. It counts as cell-based. The note with it: Candida tropicalis, 156.
For data set [11], the system named is C. parapsilosis 571. In words: Sensititre YeastOne antifungal susceptibility test. To be noted: Lodderomyces parapsilosis, 571. The data set is classed as cell-based.
Data set [12] concerns Cryptococcus neoformans 297. Description: Sensititre YeastOne antifungal susceptibility test. It counts as cell-based. The note with it: Cryptococcus neoformans, 297.
In the next data set the test system is Cr. laurentii 325m. In words: Sensititre YeastOne antifungal susceptibility test. The data set is classed as cell-based. The note with it: Papiliotrema laurentii, 325M.
The next data set has as its system human erythrocytes. In words: Hemolytic activity. The data set is classed as cell-based. The note with it: 20 μM, 1 h, 37 °C, relative to H2O control = 100%, OD 540 nm or 570 nm, triplicate, mean. The protocol:
Erythrocytes were isolated from the peripheral blood of healthy donors after incubation at 4 °C for 2–3 h. All the donors are males, 35–38 years old. All of them have approved to collect blood samples, and the authors have permissions filled. All the blood samples have been destroyed after the experiments finished. The red blood cell suspension (100 μL) was pelleted, washed twice with saline, then the pellet was resuspended in 500 μL saline or distilled water (positive control of hemolysis). The compounds were added (final concentration of 20 μM). The samples were incubated for 1 h at 37 °C and centrifuged at 2000 rpm for 1.5 min. The OD of supernatants was measured on a Multiscan spectrophotometer FC (Thermo Scientific, Waltham, MA, USA) at a wavelength of 540 nm. The percent hemolysis was calculated relative to the positive control, taken as 100%.
Erythrocytes were isolated from the human blood: On the day of the study, blood was taken from the donor’s cubital vein into a test tube with an anticoagulant. The blood was incubated at 4 °C for 2‒3 h. A suspension of erythrocytes (100 μL) was diluted with a physiological buffer (pH 7.2) to a total volume of 500 μL. Solutions of the test substances with an initial concentration of […] (DMSO) were diluted with a PBS buffer (1:10). The resulting solutions were introduced into Eppendorf tubes in the amounts required to create the studied concentration (5, 10, or 20 μM). A mixture of PBS with erythrocytes was added to a total volume of 200 μL. The control (C) was a mixture of erythrocytes with H2O (100% of hemolysis). The intact control solution (I) was a mixture of erythrocytes with the PBS and solvent (DMSO). The antibiotic gramicidin S (Gram S) was used as a control sample with active hemolysis. The mixture was incubated for 1 h at 37 °C. The measurement of the optical density of the supernatants was carried out on a BioTek ELx800 automatic microplate photometer (USA) at 570 nm. The optical density of the liquid above the sediment in the control sample with H2O was taken as 100%.

For `CC[C@H](C)C[C@H](C)CCCCCCCCC(=O)N[C@H]1C[C@@H](O)[C@@H](NCCN)NC(=O)[C@@H]2[C@@H](O)CCN2C(=O)[C@H]([C@H](O)CCN)NC(=O)[C@H]([C@H](O)[C@@H](O)c2ccc(O)cc2)NC(=O)[C@@H]2C[C@@H](O)CN2C(=O)[C@H]([C@@H](C)O)NC1=O` [CAS, Caspofungin], the MFC in the data set on Candida albicans 1402 [1] (Candida albicans 1402, lowest concentration causing 95% death, plated on PDA agar, read-out: MFC) came out at 0.5 µg/mL (≈ 0.457 µM); with C. glabrata 1402 [2] (C. glabrata 1402, lowest concentration causing 95% death, read-out: MFC) it was 0.5 µg/mL (≈ 0.457 µM); in the data set with C. krusei 1447 [3] (C. krusei 1447, lowest concentration causing 95% death, read-out: MFC), 1 µg/mL (≈ 0.915 µM); in the data set with C. tropicalis 156 [4] (C. tropicalis 156, lowest concentration causing 95% death, read-out: MFC), 0.5 µg/mL (≈ 0.457 µM); in the data set with C. parapsilosis 571 [5] (C. parapsilosis 571, lowest concentration causing 95% death, read-out: MFC) it was 1 µg/mL (≈ 0.915 µM). The MIC in the data set with Candida albicans 1402 [1] (Candida albicans 1402 clinical isolate, RPMI 1640 pH 7.0, 35 °C, 24 h, read-out: MIC) is 0.06 µg/mL (≈ 0.0549 µM); in the data set on C. glabrata 1402 [2] (C. glabrata 1402 clinical isolate, RPMI 1640 pH 7.0, 35 °C, 24 h, read-out: MIC), 0.06 µg/mL (≈ 0.0549 µM); in the data set on C. krusei 1447 [3] (C. krusei 1447 clinical isolate, RPMI 1640 pH 7.0, 35 °C, 24 h, read-out: MIC), 0.25 µg/mL (≈ 0.229 µM); with C. tropicalis 156 [4] (C. tropicalis 156 clinical isolate, RPMI 1640 pH 7.0, 35 °C, 24 h, read-out: MIC), 0.06 µg/mL (≈ 0.0549 µM); in the data set with C. parapsilosis 571 [5] (C. parapsilosis 571 clinical isolate, RPMI 1640 pH 7.0, 35 °C, 24 h, read-out: MIC) it was 1 µg/mL (≈ 0.915 µM); in data set [6] it was over 64 µg/mL. In addition, the MIC with C. laurentii 325m was 16 µg/mL (≈ 14.6 µM); against Aspergillus niger 1133m, over 16 µg/mL; against A. fumigatus 390m, over 16 µg/mL; against A. terreus 497, over 16 µg/mL; with Candida albicans 1402 [7], 0.06 µg/mL (≈ 0.0549 µM); against C. glabrata 1402 [8], 0.06 µg/mL (≈ 0.0549 µM). The minimum inhibitory concentration (MIC) was 0.25 µg/mL (≈ 0.229 µM) in the data set with C. krusei 1447 [9]; 0.06 µg/mL (≈ 0.0549 µM) against C. tropicalis 156 [10]; 1 µg/mL (≈ 0.915 µM) in the data set on C. parapsilosis 571 [11]; 16 µg/mL (≈ 14.6 µM) in data set [12]; 16 µg/mL (≈ 14.6 µM) in the data set with Cr. laurentii 325m.

The compound `CC(C)C[C@@H]1NC(=O)[C@H](CCCN)NC(=O)[C@H](C(C)C)NC(=O)[C@@H]2CCCN2C(=O)[C@@H](Cc2ccccc2)NC(=O)[C@H](CC(C)C)NC(=O)[C@H](CCCN)NC(=O)[C@H](C(C)C)NC(=O)[C@@H]2CCCN2C(=O)[C@@H](Cc2ccccc2)NC1=O` [gramicidin S] (cyclo(L[dF]PV[Orn]L[dF]PV[Orn])) gave a hemolysis in the data set with human erythrocytes of 100%.

As a reminder, the MIC is the least concentration at which growth counts as inhibited.
